Columns and labels:
[1] = target: T1, Renin (Homo sapiens, UniProt P00797); test: Inhibition of recombinant human renin using Dabcyl-gamma-Abu-Ile-His-Pro-Phe-His-Leu-Val-Ile-His-Thr-EDANS as substrate after 2 hrs by spectrofluorometry
T1 sequence (P00797 whole entry): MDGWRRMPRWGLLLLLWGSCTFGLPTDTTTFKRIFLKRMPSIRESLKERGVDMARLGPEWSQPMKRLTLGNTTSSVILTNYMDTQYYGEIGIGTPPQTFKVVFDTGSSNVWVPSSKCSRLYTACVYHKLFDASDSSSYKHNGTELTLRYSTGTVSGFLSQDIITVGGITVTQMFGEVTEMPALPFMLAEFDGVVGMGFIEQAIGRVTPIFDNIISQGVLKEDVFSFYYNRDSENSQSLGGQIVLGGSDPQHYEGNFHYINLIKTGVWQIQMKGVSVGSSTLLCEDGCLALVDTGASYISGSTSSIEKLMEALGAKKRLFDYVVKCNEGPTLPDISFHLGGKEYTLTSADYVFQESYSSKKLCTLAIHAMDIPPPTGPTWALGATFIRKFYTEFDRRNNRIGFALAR

[2] = target: T1, Renin; test: Inhibition of recombinant human renin using Dabcyl-gamma-Abu-Ile-His-Pro-Phe-His-Leu-Val-Ile-His-Thr-EDANS as substrate preincubated for 30 mins followed by 30 mins incubation in human plasma by spectrofluorometry
[3] = Apparent permeability from apical to basolateral side of human Caco2/TC7 cells at 20 uM after 2 hrs in presence of 0.5 to 5% BSA at pH 6.5 to 7.4; type: ADME, cell-based; settings: Caco-2, pH 6.5
[4] = target: T1, Renin; test: Inhibition of recombinant human renin using Dabcyl-gamma-Abu-Ile-His-Pro-Phe-His-Leu-Val-Ile-His-Thr-EDANS as substrate preincubated for 30 mins followed by 30 mins incubation in mouse C57BL/6 plasma by spectrofluorometry

Row | IC50 [1] [nM] | SMILES | further results
1 | 847 | Cc1ccccc1Oc1c(C(=O)N2CCNCC2)c2cnccc2n1-c1ccccc1 | 
2 | 396 | Cc1ccc(F)cc1Oc1c(C(=O)N2CCNCC2)c2cccnc2n1-c1ccccc1 | 
3 | 6 | COc1cc2c(cn1)c(C(=O)N1CCNCC1)c(Cc1cccc(F)c1C)n2-c1ccccc1 | IC50 [2]: 328 nM; Papp A→B at 2 h, 20 µM [3]: 2.2 ×10⁻⁶ cm/s
4 | 116 | Cc1c(F)cccc1Cc1c(C(=O)N2CCNCC2)c2cnc(O)cc2n1C1CCCCC1 | 
5 | 650 | Cc1c(F)cc(F)cc1Oc1c(C(=O)N2CCNCC2)c2cnccc2n1-c1ccccc1 | 
6 | 150 | COc1cc2c(cn1)c(C(=O)N1CCNCC1)c(Cc1cccc(F)c1C)n2C1CCCCC1 | 
7 | 98 | Cc1ccccc1Oc1c(C(=O)N2CCNCC2)c2cccnc2n1-c1ccccc1 | 
8 | 88 | Cc1c(F)cccc1Cc1c(C(=O)N2CCNCC2)c2cnc(O)cc2n1-c1ccccc1 | 
9 | 98 | Cc1ccc(F)c(C)c1Oc1c(C(=O)N2CCNCC2)c2cnc(O)cc2n1C1CCCCC1 | 
10 | 181 | Cc1c(F)cccc1Oc1c(C(=O)N2CCNCC2)c2cnccc2n1-c1ccccc1 | 
11 | 186 | CCCc1ccnc2c1c(C(=O)N1CCNCC1)c(Oc1c(C)cccc1C)n2-c1ccccc1 | 
12 | 3400 | O=C(c1c(Cc2ccccc2)n(-c2ccccc2)c2ccncc12)N1CCNCC1 | 
13 | 6 | Cc1ccc(F)cc1Oc1c(C(=O)N2CCNCC2)c2cc(O)cnc2n1-c1ccccc1 | IC50 [2]: 189 nM; Papp A→B at 2 h, 20 µM [3]: 0.45 ×10⁻⁶ cm/s; IC50 [4]: 57 nM
14 | 1230 | CCc1ccnc2c1c(C(=O)N1CCNCC1)c(Oc1cc(F)ccc1C)n2-c1ccccc1 | 
15 | 504 | Cc1c(F)cc(F)cc1Oc1c(C(=O)N2CCNCC2)c2cccnc2n1-c1ccccc1 | 
16 | 218 | CCCc1ccnc2c1c(C(=O)N1CCNCC1)c(Cc1cccc(F)c1C)n2-c1ccccc1 | 
17 | 3260 | COc1cc2c(cn1)c(C(=O)N1CCN[C@@H](CO)C1)c(Cc1cccc(F)c1C)n2C1CCCCC1 | 
18 | 123 | Cc1ccc(F)cc1Oc1c(C(=O)N2CCNCC2)c2cnccc2n1-c1ccccc1 | 

Row | IC50 [1] [nM] | SMILES | further results
19 | 73 | COc1cc2c(cn1)c(C(=O)N1CCNCC1)c(Oc1cc(F)ccc1C)n2-c1ccccc1 | 
20 | 89 | CCc1ccnc2c1c(C(=O)N1CCNCC1)c(Cc1cccc(F)c1C)n2-c1ccccc1 | 
21 | 6 | Cc1c(F)cccc1Cc1c(C(=O)N2CCNCC2)c2cc(O)cnc2n1-c1ccccc1 | IC50 [2]: 95 nM; IC50 [4]: 159 nM
22 | 8 | Cc1c(F)cccc1Cc1c(C(=O)N2CCNCC2)c2cnccc2n1-c1ccccc1 | IC50 [2]: 200 nM; Papp A→B at 2 h, 20 µM [3]: 0.64 ×10⁻⁶ cm/s; IC50 [4]: 410 nM
23 | 1830 | O=C(c1c(Oc2ccccc2)n(-c2ccccc2)c2ncccc12)N1CCNCC1 | 
24 | 37 | Cc1ccc(F)c(C)c1Oc1c(C(=O)N2CCN[C@@H](C)C2)c2c[nH]c(=O)cc2n1C1CCCCC1 | 
25 | 154 | Cc1c(F)cccc1Cc1c(C(=O)N2CCN[C@@H](C)C2)c2c[nH]c(=O)cc2n1C1CCCCC1 | 
26 | 520 | Cc1ccccc1Cc1c(C(=O)N2CCNCC2)c2cnccc2n1-c1ccccc1 | 
27 | 4670 | COc1cnc2c(c1)c(C(=O)N1CCNCC1)c(Cc1cccc(F)c1C)n2-c1ccccc1 | 
28 | 15 | COc1ccc2c(C(=O)N3CCNCC3)c(Oc3cc(F)ccc3C)n(-c3ccccc3)c2n1 | 
29 | 11 | Cc1ccc(F)cc1Oc1c(C(=O)N2CCN[C@@H](C)C2)c2cnc(O)cc2n1C1CCCCC1 | 
30 | 231 | Cc1cccc(F)c1Oc1c(C(=O)N2CCNCC2)c2cccnc2n1-c1ccccc1 | 
31 | 4090 | COC[C@H]1CN(C(=O)c2c(Cc3cccc(F)c3C)n(C3CCCCC3)c3cc(OC)ncc23)CCN1 | 
32 | 99 | COc1cc2c(cn1)c(C(=O)N1CCNCC1)c(Oc1c(C)cccc1C)n2C1CCCCC1 | 
33 | 24 | Cc1ccc(F)cc1Oc1c(C(=O)N2CCNCC2)c2cnc(O)cc2n1-c1ccccc1 | 
34 | 6410 | O=C(c1c(Cc2ccccc2)n(-c2ccccc2)c2ncccc12)N1CCNCC1 | 
35 | 5060 | O=C(c1c(Oc2ccccc2F)n(-c2ccccc2)c2ncccc12)N1CCNCC1 | 
